Source: US20110065706A1, “Therapeutic Agents 812” (AstraZeneca AB, priority 2009, published 2011)

Molecular target: T1, human GPR119 (Homo sapiens, UniProt Q8TDV5)
T1 construct: expressed in transfected cells; host or cells: HEK 293s
T1 sequence (Q8TDV5 1-335): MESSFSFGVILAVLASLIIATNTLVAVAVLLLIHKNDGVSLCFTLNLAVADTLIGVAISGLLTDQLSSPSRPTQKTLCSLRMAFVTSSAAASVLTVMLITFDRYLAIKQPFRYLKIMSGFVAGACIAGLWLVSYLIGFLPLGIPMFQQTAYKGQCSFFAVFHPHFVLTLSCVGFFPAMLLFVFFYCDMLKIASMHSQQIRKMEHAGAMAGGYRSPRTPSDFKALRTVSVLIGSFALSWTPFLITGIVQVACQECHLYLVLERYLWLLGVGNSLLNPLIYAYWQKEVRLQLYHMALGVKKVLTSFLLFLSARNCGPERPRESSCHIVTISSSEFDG
Test: Cyclic AMP (HTRF cAMP) assay for human GPR119, Method A
Format: cell-based
Conditions: Method A, HEK 293s cells over-expressing human GPR119; for activation at 30 µM: HEK293S, 0.75 h, percent effect at top concentration 30 μM relative to maximum (50 μM Oleoylethanolamide) and minimum (1% DMSO) controls; for EC50: midpoint of dose response curve, selected examples

activation at 30 µM [%]	EC50 [µM]	Structure (SMILES)
83	–	CC(C)(C)OC(=O)N1CCN(c2ncc(OCc3ccc(S(C)(=O)=O)cc3)cn2)CC1 [Example 1, Tert-butyl 4-(5-(4-(methylsulfonyl)benzyloxy)pyrimidin-2-yl)piperazine-1-carboxylate]
131	–	CC(C)(C)OC(=O)N1CCN(c2ncc(OCc3ccc(-n4cncn4)cc3)cn2)CC1 [Example 2, tert-butyl 4-(5-(4-(1H-1,2,4-triazol-1-yl)benzyl-oxy)pyrimidin-2-yl)piperazine-1-carboxylate]
69	–	Cc1nc(-c2ccc(COc3cnc(N4CCN(C(=O)OC(C)(C)C)CC4)nc3)cc2)no1 [Example 4, tert-butyl 4-(5-(4-(5-methyl-1,2,4-oxadiazol-3-yl)benzyloxy)pyrimidin-2-yl)piperazine-1-carboxylate]
82	–	CC(C)(C)OC(=O)N1CCN(c2ncc(OCc3ccc(-n4cccn4)nc3)cn2)CC1 [Example 5, tert-butyl 4-(5-((6-(1H-pyrazol-1-yl)pyridin-3-yl)methoxy)pyrimidin-2-yl)piperazine-1-carboxylate]
59	–	CC(=O)Nc1ccc(COc2cnc(N3CCN(C(=O)OC(C)(C)C)CC3)nc2)cn1 [Example 6, tert-butyl 4-(5-((6-acetamido-pyridin-3-yl)methoxy)pyrimidin-2-yl)piperazine-1-carboxylate]
170	–	CC(C)(C)OC(=O)N1CCN(c2ncc(OCc3ccc(-n4cnnn4)cc3)cn2)CC1 [Example 7, Tert-butyl 4-(5-(4-(1H-tetrazol-1-yl)benzyloxy)pyrimidin-2-yl)piperazine-1-carboxylate]
26	–	COc1cc(COc2cnc(N3CCN(C(=O)OC(C)(C)C)CC3)nc2)c(F)cn1 [Example 8, tert-butyl 4-(5-((5-fluoro-2-methoxy-pyridin-4-yl)methoxy)pyrimidin-2-yl)piperazine-1-carboxylate]
61	–	CC(C)(C)OC(=O)N1CCN(c2ncc(OCc3ccncn3)cn2)CC1 [Example 9, tert-butyl 4-(5-(pyrimidin-4-ylmethoxy)pyrimidin-2-yl)piperazine-1-carboxylate]
54	–	Cc1cc(COc2cnc(N3CCN(C(=O)OC(C)(C)C)CC3)nc2)ccc1NC(=O)C(C)C [Example 12, tert-butyl 4-(5-(4-isobutyr-amido-3-methyl-benzyloxy)pyrimidin-2-yl)piperazine-1-carboxylate]
41	–	Cc1cc(COc2cnc(N3CCN(C(=O)OC(C)(C)C)CC3)nc2)ccc1NC(=O)C(C)(C)C [Example 13, tert-butyl 4-(5-(3-methyl-4-pivalamido-benzyloxy)pyrimidin-2-yl)piperazine-1-carboxylate]
78	–	CC(C)C(=O)Nc1ccc(COc2cnc(N3CCN(C(=O)OC(C)(C)C)CC3)nc2)cc1 [Example 14, tert-butyl 4-(5-(4-isobutyramido-benzyloxy)pyrimidin-2-yl)piperazine-1-carboxylate]
80	–	CC(C)(C)OC(=O)N1CCN(c2ncc(OCc3ccc(NC(=O)C(C)(C)C)cc3)cn2)CC1 [Example 15, tert-butyl 4-(5-(4-pivalamido-benzyloxy)pyrimidin-2-yl)piperazine-1-carboxylate]
57	–	CNS(=O)(=O)c1ccc(COc2cnc(N3CCN(C(=O)OC(C)(C)C)CC3)nc2)cc1 [Example 16, tert-butyl 4-(5-(4-(N-methyl-sulfamoyl)benzyloxy)pyrimidin-2-yl)piperazine-1-carboxylate]
65	0.02	CC(C)(C)OC(=O)N1CCN(c2ncc(OCc3ccc(OS(C)(=O)=O)cc3)cn2)CC1 [Example 17, tert-butyl 4-(5-(4-(methyl-sulfonyloxy)benzyloxy)pyrimidin-2-yl)piperazine-1-carboxylate]
155	–	C[C@@H]1CN(C(=O)OC(C)(C)C)CCN1c1ncc(OCc2ccc(S(C)(=O)=O)cc2)cn1 [Example 18, (R)-Tert-butyl 3-methyl-4-(5-(4-(methylsulfonyl)benzyloxy)pyrimidin-2-yl)piperazine-1-carboxylate]
68	–	C[C@@H]1CN(C(=O)OC(C)(C)C)CCN1c1ncc(OCc2ccncc2)cn1 [Example 19, (R)-Tert-butyl 3-methyl-4-(5-(pyridin-4-ylmethoxy)pyrimidin-2-yl)piperazine-1-carboxylate]
100	0.202	C[C@@H]1CN(C(=O)OC(C)(C)C)CCN1c1ncc(OCc2ccc(C(=O)N(C)CCO)cc2)cn1 [Example 21, (R)-tert-butyl 4-(5-(4-((2-hydroxyethyl) (methyl)carba-moyl)benzyl-oxy)pyrimidin-2-yl)-3-methyl-piperazine-1-carboxylate]

activation at 30 µM [%]	EC50 [µM]	Structure (SMILES)
36	–	CC(C)(C)OC(=O)N1C[C@@H]2CC[C@H]1CN2c1ncc(OCc2ccc(S(C)(=O)=O)cc2)cn1 [Example 29, (1S,4S)-tert-butyl 5-(5-(4-(methylsulfonyl)benzyloxy)pyrimidin-2-yl)-2,5-diazabicyclo [2.2.2]octane-2-carboxylate]
86	–	CC(C)(C)OC(=O)N1CCN(c2ncc(OCc3ccc(S(C)(=O)=O)nc3)cn2)CC1 [Example 30, Tert-butyl 4-(5((6-(methylsulfonyl)pyridin-3-yl)methoxy)pyrimidin-2-yl)piperazine-1-carboxylate]
86	–	CC(C)(C)OC(=O)N1CCN(c2ncc(OCc3ccc(S(C)(=O)=O)cn3)cn2)CC1 [Example 31, tert-butyl 4-(5-((5-(methylsulfonyl)pyridin-2-yl)methoxy)pyrimidin-2-yl)piperazine-1-carboxylate]
62	–	CC(C)(C)OC(=O)N1CCN(c2ncc(OCc3ccc(S(C)(=O)=O)c(F)c3)cn2)CC1 [Example 32, tert-butyl 4-(5-(3-fluoro-4-(methylsulfonyl)benzyloxy)pyrimidin-2-yl)piperazine-1-carboxylate]
82	–	Cc1cc(S(C)(=O)=O)ccc1COc1cnc(N2CCN(C(=O)OC(C)(C)C)CC2)nc1 [Example 33, tert-butyl 4-(5-(2-methyl-4-(methylsulfonyl)benzyloxy)pyrimidin-2-yl)piperazine-1-carboxylate]
128	0.019	CC(C)(C)OC(=O)N1CCN(c2ncc(OCc3ccc(S(C)(=O)=O)cc3F)cn2)CC1 [Example 36, tert-butyl 4-(5-(2-fluoro-4-(methylsulf-onyl)benzyl-oxy)pyrimi-din-2-yl)piperazine-1-carboxylate]
52	0.02	Cc1cc(COc2cnc(N3CCN(C(=O)OC(C)(C)C)CC3)nc2)ccc1S(C)(=O)=O [Example 37, tert-butyl 4-(5-(3-methyl-4-(methylsulf-onyl)benzyl-oxy)pyrimi-din-2-yl)piperazine-1-carboxylate]
90	–	N#Cc1cnccc1COc1cnc(N2CCN(c3ncc(F)cn3)CC2)nc1 [Example 40, 4-((2-(4-(5-Fluoropyrimidin-2-yl)piperazin-1-yl)pyrimidin-5-yloxy)methyl)nicotinonitrile]
64	0.156	CS(=O)(=O)c1ccc(COc2cnc(N3CCN(c4ncc(F)cn4)CC3)nc2)cc1 [Example 42, 5-fluoro-2-(4-(5-(4-(methylsulfonyl)benzyloxy)pyrim-idin-2-yl)piperazin-1-yl)pyrimidine]
48	–	CN(CCO)C(=O)c1ccc(COc2cnc(N3CCN(C(=O)OC(C)(C)C)CC3)nc2)cc1 [Example 43, Tert-butyl 4-(5-(4-((2-hydroxyethyl)(methyl)carbamoyl)benzyloxy)pyrimidin-2-yl)piperazine-1-carboxylate]
61	–	CC(C)(C)OC(=O)N1CCN(c2ncc(OCc3ccc(C(=O)NCCO)cc3)cn2)CC1 [Example 44, tert-butyl 4-(5-(4-(2-hydroxyethyl-carbamoyl)benz-yloxy)pyrimi-din-2-yl)piperazine-1-carboxylate]
142	–	CNC(=O)c1ccc(COc2cnc(N3CCN(C(=O)OC(C)(C)C)CC3)nc2)cc1 [Example 45, tert-butyl 4-(5-(4-(methylcarba-moyl)benzyloxy)pyrimidin-2-yl)piperazine-1-carboxylate]
94	0.032	CC(C)NC(=O)c1ccc(COc2cnc(N3CCN(C(=O)OC(C)(C)C)CC3)nc2)cc1 [Example 46, tert-butyl 4-(5-(4-(isopropylcarba-moyl)benzyl-oxy)pyrimidin-2-yl)piperazine-1-carboxylate]
109	–	CC(C)(C)NC(=O)c1ccc(COc2cnc(N3CCN(C(=O)OC(C)(C)C)CC3)nc2)cc1 [Example 47, tert-butyl 4-(5-(4-(tert-butylcarbamoyl)benzyloxy)pyrimidin-2-yl)piperazine-1-carboxylate]
26	–	CN(C)CCNC(=O)c1ccc(COc2cnc(N3CCN(C(=O)OC(C)(C)C)CC3)nc2)cc1 [Example 48, tert-butyl 4-(5-(4-(2-(dimethylamino)ethylcarba-moyl)benzyloxy)pyrimidin-2-yl)piperazine-1-carboxylate]
27	2.04	CN(C)CCN(C)C(=O)c1ccc(COc2cnc(N3CCN(C(=O)OC(C)(C)C)CC3)nc2)cc1 [Example 49, tert-butyl 4-(5-(4-((2-(dimethylamino)ethyl)(methyl)carbamoyl)benzyloxy)pyrim-idin-2-yl)piperazine-1-carboxylate]
